{
  "source": "paper PMC12344683",
  "about": "“N-alkyl and N-benzyl indoles are anti-SARS-CoV-2 agents and nsp13 inhibitors” (Journal of Enzyme Inhibition and Medicinal Chemistry, 2025)",
  "key": {"SARS-CoV-2 nsp13 [1]": {"molecular_target": "T1, SARS-CoV-2 nsp13 (Severe acute respiratory syndrome coronavirus 2, UniProt P0DTD1)", "settings": "cited from earlier work"}, "SARS-CoV-2": {"tested_on": "SARS-CoV-2", "settings": "cited from earlier work"}, "Vero E6-GFP cells": {"tested_on": "Vero E6-GFP cells", "settings": "cited from earlier work"}, "HCoV229E": {"tested_on": "HCoV229E", "parameters": "method as in PMID 37562607", "settings": "cited from earlier work"}, "MERS-CoV": {"tested_on": "MERS-CoV", "settings": "cited from earlier work"}, "SARS-CoV-2 nsp13 [2]": {"molecular_target": "T1, SARS-CoV-2 nsp13", "settings": "SARS-CoV-2 nsp13-associated ATPase activity; cited from earlier work"}, "[3]": {"assay": "Cellular toxicity assay (GFP signal as viability)", "type": "cell-based", "settings": "African green monkey; Vero cells; read-out: CC50, concentration required to reduce Vero cells viability by 50%", "protocol": "Vero E6-green fluorescent protein (GFP) cells (Janssen Pharmaceutical were maintained in Dulbecco’s modified Eagle’s medium (DMEM, Gibco) supplemented with 10% v/v foetal beef serum (FBS, Gibco), 0.075% Sodium Bicarbonate (7.5% solution, Gibco) and 1X Pen-strep (Euroclone) and kept under 5% CO2 on 37 ◦C. The cells were seeded at 10 000 cells/well in 96-well black cell-treated plates (PerkinElmer). The following day, cells were incubated with the control compounds at different concentrations. Compound was dissolved in 0.1% DMSO. Seventy-two hours post infection the GPF signal, as direct index of cellular viability, was quantified by measuring the total-well fluorescence with a Victor 3 multiplate reader (PerkinElmer) set to excitation and emission wavelengths of 485 and 535 nm, respectively.\nThe percentage of induced cytopathic effects (CPE) was calculated considering the mock as 100% of cell viability, and the readout from empty wells as blank. The compound half-maximal cytopathic concentration (CC50), was determined via non-linear regression by using on Prism 9 v. 9.4.1 software (GraphPad) the built-in function dose-response inhibition, log-concentration-normalized response. Experimental points represent the average and standard deviation of at least two sets of independent triplicates."}, "SARS-CoV-2 nsp13 [4]": {"molecular_target": "T1, SARS-CoV-2 nsp13", "assay": "SARS-CoV-2 nsp13 ATPase-associated activity (Biomol Green, BSA-TCEP)", "type": "biochemical", "settings": "for IC50: SARS-CoV-2 nsp13-associated ATPase activity, from dose-response curves, read-out: Activity in enzyme assay IC50 ATPase BSA-TCEP"}, "SARS-CoV-2 nsp13 [5]": {"molecular_target": "T1, SARS-CoV-2 nsp13", "assay": "SARS-CoV-2 nsp13 unwinding-associated activity (fluorescence, BSA-TCEP)", "type": "biochemical", "settings": "for IC50: SARS-CoV-2 nsp13-associated unwinding activity, from dose-response curves, read-out: Activity in enzyme assay IC50 Unwinding BSA-TCEP"}, "SARS-CoV-2 nsp13 [6]": {"molecular_target": "T1, SARS-CoV-2 nsp13", "assay": "Incubation-dependent potency of 5c on nsp13 (inhibition type)", "type": "biochemical", "settings": "for IC50: read-out: IC50 at time-point"}, "[7]": {"settings": "SARS-CoV-2 nsp13-associated unwinding activity, read-out: IC50 unwinding"}, "[8]": {"settings": "SARS-CoV-2 infected cells, read-out: EC50 SARS-CoV-2 replication"}, "[9]": {"settings": "read-out: EC50 antiviral activity"}},
  "note": "Where two headings read alike, the source gives them in different places.",
  "data": [
    {"smiles": "CC(C)=CCn1cc(/C=C/C(=O)/C=C(\\O)C(=O)O)c2ccccc21", "note": "[compound 3]", "values": [
      {"measurement": "IC50", "setting": "SARS-CoV-2 nsp13 [1]; [7]", "result": 9.51, "unit": "µM"},
      {"measurement": "EC50", "setting": "SARS-CoV-2; [8]", "result": 4.54, "unit": "µM"},
      {"measurement": "CC50", "setting": "Vero E6-GFP cells", "result": "> 264", "unit": "µM"},
      {"measurement": "EC50", "setting": "HCoV229E", "result": 0.54, "unit": "µM"},
      {"measurement": "EC50", "setting": "MERS-CoV", "result": 0.33, "unit": "µM"},
      {"measurement": "IC50", "setting": "SARS-CoV-2 nsp13 [2]", "result": 26.8, "unit": "µM"}
    ]},
    {"smiles": "CC(C)=CCc1c(O)cc(O)c2c(=O)cc(-c3ccc(O)cc3)oc12", "note": "[compound 2, licoflavone C]", "values": [
      {"measurement": "EC50", "setting": "SARS-CoV-2; [9]", "result": "> 100", "unit": "µM"}
    ]},
    {"smiles": "O=C(/C=C(\\O)C(=O)O)/C=C/c1cn(Cc2ccccc2)c2ccccc12", "note": "[compound 4]", "values": [
      {"measurement": "IC50", "setting": "SARS-CoV-2 nsp13 [1]; [7]", "result": "12.7 ± 4.9", "unit": "µM"},
      {"measurement": "EC50", "setting": "SARS-CoV-2; [8]", "result": "1.03 ± 0.24", "unit": "µM"},
      {"measurement": "CC50", "setting": "Vero E6-GFP cells", "result": "> 264", "unit": "µM"},
      {"measurement": "EC50", "setting": "HCoV229E", "result": 1.83, "unit": "µM"},
      {"measurement": "EC50", "setting": "MERS-CoV", "result": 6.32, "unit": "µM"},
      {"measurement": "IC50", "setting": "SARS-CoV-2 nsp13 [2]", "result": "12.8 ± 1.3", "unit": "µM"}
    ]},
    {"smiles": "C=CCn1c(CSc2ccccc2[N+](=O)[O-])n[nH]c1=S", "note": "[SSYA10-001]", "values": [
      {"measurement": "IC50", "setting": "SARS-CoV-2 nsp13 [1]; SARS-CoV-2 nsp13, read-out: IC50 vs unwinding", "result": 7.5, "unit": "µM"},
      {"measurement": "EC50", "setting": "SARS-CoV-2; [9]", "result": 81, "unit": "µM"}
    ]},
    {"smiles": "O=C(/C=C(\\O)C(=O)O)/C=C/c1cn(Cc2ccc(OC(F)(F)F)cc2)c2ccccc12", "note": "[5e]", "values": [
      {"measurement": "CC50 at 72 h", "setting": "[3]", "result": "> 100", "unit": "µM"},
      {"measurement": "IC50", "setting": "SARS-CoV-2 nsp13 [4]", "result": "6.41 ± 0.05", "unit": "µM"},
      {"measurement": "IC50", "setting": "SARS-CoV-2 nsp13 [5]", "result": "6.24 ± 0.24", "unit": "µM"}
    ]},
    {"smiles": "O=C(/C=C(\\O)C(=O)O)/C=C/c1cn(Cc2ccc(F)cc2)c2ccc(Cl)cc12", "note": "[5i, (2Z,5E)-6-(5-chloro-1-(4-fluorobenzyl)-1H-indol-3-yl)-2-hydroxy-4-oxohexa-2,5-dienoic acid]", "values": [
      {"measurement": "CC50 at 72 h", "setting": "[3]", "result": "> 100", "unit": "µM"},
      {"measurement": "IC50", "setting": "SARS-CoV-2 nsp13 [4]", "result": "26.3 ± 2.52", "unit": "µM"},
      {"measurement": "selectivity for unwinding over ATPase", "setting": "SARS-CoV-2 nsp13 [5]; IC50 unwinding vs IC50 ATPase", "result": "2 order of magnitude"},
      {"measurement": "IC50", "setting": "SARS-CoV-2 nsp13 [5]", "result": "0.47 ± 0.01", "unit": "µM"},
      {"measurement": "gain in activity on unwinding with respect to the hit 4", "setting": "SARS-CoV-2 nsp13 [5]; ratio of IC50 values", "result": 27, "unit": "fold"}
    ]},
    {"smiles": "CC(C)c1ccc(Cn2cc(/C=C/C(=O)/C=C(\\O)C(=O)O)c3ccccc32)cc1", "note": "[5c]", "values": [
      {"measurement": "CC50 at 72 h", "setting": "[3]", "result": "> 100", "unit": "µM"},
      {"measurement": "IC50", "setting": "SARS-CoV-2 nsp13 [6]; 1 min after activation of the reaction with the substrate", "result": 0.76, "unit": "µM"},
      {"measurement": "IC50", "setting": "SARS-CoV-2 nsp13 [6]; 5 min after activation of the reaction with the substrate", "result": 1.64, "unit": "µM"},
      {"measurement": "IC50", "setting": "SARS-CoV-2 nsp13 [6]; 10 min after activation of the reaction with the substrate", "result": 2.75, "unit": "µM"},
      {"measurement": "IC50", "setting": "SARS-CoV-2 nsp13 [6]; 15 min after activation of the reaction with the substrate", "result": 2.94, "unit": "µM"},
      {"measurement": "IC50", "setting": "SARS-CoV-2 nsp13 [6]; 20 min after activation of the reaction with the substrate", "result": 2.76, "unit": "µM"},
      {"measurement": "nature of the inhibition", "setting": "SARS-CoV-2 nsp13 [6]; from time-increased IC50 values", "result": "non-covalent/reversible"},
      {"measurement": "effect of extended pre-incubation of compound and enzyme on inhibitory potency", "setting": "SARS-CoV-2 nsp13 [6]; pre-incubation extended to +20 min and +50 min at RT", "result": "did not lead to an increase of the inhibitory potency"},
      {"measurement": "IC50", "setting": "SARS-CoV-2 nsp13 [4]", "result": "1.8 ± 0.19", "unit": "µM"},
      {"measurement": "higher ATPase inhibition in respect to 4", "setting": "SARS-CoV-2 nsp13 [4]; ratio of IC50 values", "result": 7, "unit": "fold"},
      {"measurement": "IC50", "setting": "SARS-CoV-2 nsp13 [5]", "result": "4.73 ± 0.5", "unit": "µM"}
    ]}
  ]
}
